# ChEMBL document CHEMBL3585261, “Isolation and Pharmacological Evaluation of Minor Cannabinoids from High-Potency Cannabis sativa” (J Nat Prod, 2015)
# What was measured:
# Cannabinoid receptor 1 = Cannabinoid receptor 1 (Homo sapiens, UniProt P21554); test: Displacement of [3H]CP55940 from full length human recombinant CB1 receptor expressed in HEK293 cells after 90 mins by scintillation counting analysis; type: cell-based
# Cannabinoid receptor 2 = Cannabinoid receptor 2 (Homo sapiens, UniProt P34972); test: Displacement of [3H]CP55940 from full length human recombinant CB2 receptor expressed in HEK293 cells after 90 mins by scintillation counting analysis; type: cell-based
# Cannabinoid receptor 2, sequence (P34972 whole entry): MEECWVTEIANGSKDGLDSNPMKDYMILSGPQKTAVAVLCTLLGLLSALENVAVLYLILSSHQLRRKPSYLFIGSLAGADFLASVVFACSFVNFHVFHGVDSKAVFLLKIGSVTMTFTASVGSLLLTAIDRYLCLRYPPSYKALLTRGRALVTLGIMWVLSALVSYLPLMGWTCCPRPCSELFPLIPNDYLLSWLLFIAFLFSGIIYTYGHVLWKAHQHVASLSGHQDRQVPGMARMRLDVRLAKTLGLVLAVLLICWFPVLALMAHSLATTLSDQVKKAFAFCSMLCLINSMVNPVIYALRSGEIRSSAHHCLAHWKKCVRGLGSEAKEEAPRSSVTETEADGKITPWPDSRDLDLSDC
# Mus musculus [1] = test: Neurobehavioral effect on Swiss Webster mouse assessed as locomotor activity measured as total number of interruptions at 20 mg/kg, ip monitored for 30 mins (reference value: 2091 +/- 209.3) by mouse tetrad assay; type: functional
# Mus musculus [2] = test: Neurobehavioral effect on Swiss Webster mouse assessed as catalepsy latency time at 20 mg/kg, ip (reference value: 2.1 +/- 0.60 secs) by mouse tetrad assay; type: functional
# Mus musculus [3] = test: Neurobehavioral effect on Swiss Webster mouse assessed as tail-flick latency time at 20 mg/kg, ip (reference value: 0.84 +/- 3.58 %) by mouse tetrad assay; type: functional
# Mus musculus [4] = test: Neurobehavioral effect on Swiss Webster mouse assessed as hot plate latency time at 20 mg/kg, ip (reference value: 8.32 +/- 2.20 %) by mouse tetrad assay; type: functional
# Mus musculus [5] = test: Neurobehavioral effect on Swiss Webster mouse assessed as decrease in rectal temperature at 20 mg/kg, ip (reference value: 0.58 +/- 0.26 degC) by mouse tetrad assay; type: functional
# Mus musculus [6] = test: Neurobehavioral effect on Swiss Webster mouse assessed as locomotor activity measured as total number of interruptions at 10 mg/kg, ip monitored for 30 mins (reference value: 2091 +/- 209.3) by mouse tetrad assay; type: functional
# Mus musculus [7] = test: Neurobehavioral effect on Swiss Webster mouse assessed as locomotor activity measured as total number of interruptions at 40 mg/kg, ip monitored for 30 mins (reference value: 2091 +/- 209.3) by mouse tetrad assay; type: functional
# Mus musculus [8] = test: Neurobehavioral effect on Swiss Webster mouse assessed as catalepsy latency time at 10 mg/kg, ip (reference value: 2.1 +/- 0.60 secs) by mouse tetrad assay; type: functional
# Mus musculus [9] = test: Neurobehavioral effect on Swiss Webster mouse assessed as catalepsy latency time at 40 mg/kg, ip (reference value: 2.1 +/- 0.60 secs) by mouse tetrad assay; type: functional
# Mus musculus [10] = test: Neurobehavioral effect on Swiss Webster mouse assessed as tail-flick latency time at 10 mg/kg, ip (reference value: 0.84 +/- 3.58 %) by mouse tetrad assay; type: functional
# Mus musculus [11] = test: Neurobehavioral effect on Swiss Webster mouse assessed as tail-flick latency time at 40 mg/kg, ip (reference value: 0.84 +/- 3.58 %) by mouse tetrad assay; type: functional
# Mus musculus [12] = test: Neurobehavioral effect on Swiss Webster mouse assessed as hot plate latency time at 10 mg/kg, ip (reference value: 8.32 +/- 2.20 %) by mouse tetrad assay; type: functional
# Mus musculus [13] = test: Neurobehavioral effect on Swiss Webster mouse assessed as hot plate latency time at 40 mg/kg, ip (reference value: 8.32 +/- 2.20 %) by mouse tetrad assay; type: functional
# Mus musculus [14] = test: Neurobehavioral effect on Swiss Webster mouse assessed as decrease in rectal temperature at 10 mg/kg, ip (reference value: 0.58 +/- 0.26 degC) by mouse tetrad assay; type: functional
# Mus musculus [15] = test: Neurobehavioral effect on Swiss Webster mouse assessed as decrease in rectal temperature at 40 mg/kg, ip (reference value: 0.58 +/- 0.26 degC) by mouse tetrad assay; type: functional
# Mus musculus [16] = test: Neurobehavioral effect on Swiss Webster mouse assessed as locomotor activity measured as total number of interruptions at 5 mg/kg, ip monitored for 30 mins (reference value: 2091 +/- 209.3) by mouse tetrad assay; type: functional
# Mus musculus [17] = test: Neurobehavioral effect on Swiss Webster mouse assessed as catalepsy latency time at 5 mg/kg, ip (reference value: 2.1 +/- 0.60 secs) by mouse tetrad assay; type: functional
# Mus musculus [18] = test: Neurobehavioral effect on Swiss Webster mouse assessed as tail-flick latency time at 5 mg/kg, ip (reference value: 0.84 +/- 3.58 %) by mouse tetrad assay; type: functional
# Mus musculus [19] = test: Neurobehavioral effect on Swiss Webster mouse assessed as hot plate latency time at 5 mg/kg, ip (reference value: 8.32 +/- 2.20 %) by mouse tetrad assay; type: functional
# Mus musculus [20] = test: Neurobehavioral effect on Swiss Webster mouse assessed as decrease in rectal temperature at 5 mg/kg, ip (reference value: 0.58 +/- 0.26 degC) by mouse tetrad assay; type: functional
# Cannabinoid receptor 1, sequence (P21554 whole entry): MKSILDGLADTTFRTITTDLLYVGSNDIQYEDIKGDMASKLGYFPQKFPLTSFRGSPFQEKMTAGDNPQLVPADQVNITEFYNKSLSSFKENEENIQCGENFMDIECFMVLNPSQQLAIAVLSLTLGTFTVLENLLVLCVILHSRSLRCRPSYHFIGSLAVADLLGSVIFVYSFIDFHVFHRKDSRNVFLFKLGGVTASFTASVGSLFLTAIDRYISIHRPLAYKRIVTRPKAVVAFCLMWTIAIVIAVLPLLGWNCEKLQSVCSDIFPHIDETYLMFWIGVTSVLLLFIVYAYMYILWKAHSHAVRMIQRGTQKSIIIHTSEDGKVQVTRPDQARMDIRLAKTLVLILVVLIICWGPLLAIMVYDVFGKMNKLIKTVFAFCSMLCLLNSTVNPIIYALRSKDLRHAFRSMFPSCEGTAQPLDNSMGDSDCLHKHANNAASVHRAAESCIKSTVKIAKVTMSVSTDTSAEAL
Structure (SMILES),Ki (Cannabinoid receptor 1),Ki (Cannabinoid receptor 2),Activity (Mus musculus [1]),Time (Mus musculus [2]),MPE (Mus musculus [3]),MPE (Mus musculus [4]),T (Mus musculus [5]),Activity (Mus musculus [6]),Activity (Mus musculus [7]),Time (Mus musculus [8]),Time (Mus musculus [9]),MPE (Mus musculus [10]),MPE (Mus musculus [11]),MPE (Mus musculus [12]),MPE (Mus musculus [13]),T (Mus musculus [14]),T (Mus musculus [15]),Activity (Mus musculus [16]),Time (Mus musculus [17]),MPE (Mus musculus [18]),further results
CCCCCc1cc(O)c2c(c1)OC(C)(C)[C@@H]1C[C@H](O)C(C)=C[C@@H]21,1910 nM,3220 nM,908.9,1.5 s,5.01%,4.95%,0.58 °C,–,–,–,–,–,–,–,–,–,–,–,–,–,–
CCCCCc1cc(O)c2c(c1)OC(C)(C)[C@@H]1C[C@@H](O)C(C)=C[C@@H]21,65 nM,88 nM,1148,1.43 s,1.62%,2.04%,0.5 °C,1617,777.4,1.143 s,11.43 s,0.13%,12.69%,11.83%,11.79%,0.49 °C,0.91 °C,–,–,–,–
CCCCCc1cc(O)c2c(c1)OC(C)(C)[C@@H]1CC=C(C)[C@H](O)[C@@H]21,31 nM,30 nM,301.9,51.1 s,90.16%,47.63%,5.38 °C,288.3,–,23.9 s,–,31.46%,–,56.33%,–,3.21 °C,–,318.1,22 s,37.4%,MPE (Mus musculus [19]): 21.04%; T (Mus musculus [20]): 2.46 °C
CCCCCc1cc(O)c2c(c1)OC(C)(C)[C@@H]1CC=C(C)[C@@H](O)[C@@H]21,830 nM,3270 nM,–,–,–,–,–,3045,2537,1.4 s,13.7 s,2.2%,69.95%,6.819%,55.65%,0.47 °C,5.32 °C,–,–,–,–
C=C1CC[C@@H]2[C@H](c3c(O)cc(CCCCC)cc3OC2(C)C)[C@H]1O,117 nM,129 nM,–,–,–,–,–,–,–,–,–,–,–,–,–,–,–,–,–,–,–
CCCCCc1cc(O)c2c(c1)OC(C)(C)[C@@H]1CC[C@@]3(C)O[C@H]3[C@@H]21,224 nM,335 nM,380.3,27.5 s,50.37%,49.39%,4.58 °C,291.2,–,8.8 s,–,82.71%,–,35.89%,–,3.11 °C,–,213.4,23.8 s,16.25%,MPE (Mus musculus [19]): 36.98%; T (Mus musculus [20]): 3.75 °C
CCCCCc1cc2c(c(O)c1C(=O)O)[C@@H]1C=C(COC(C)=O)CC[C@H]1C(C)(C)O2,47 nM,912 nM,–,–,–,–,–,–,–,–,–,–,–,–,–,–,–,–,–,–,–
CCCCCc1cc(O)c2c(c1)OC(C)(C)[C@@H]1CC[C@](C)(O)[C@@H](O)[C@@H]21,5670 nM,2140 nM,1892,2.25 s,2.98%,2.4%,0.45 °C,–,–,–,–,–,–,–,–,–,–,–,–,–,–
CCCCCc1cc(O)c2c(c1)OC(C)(C)[C@@H]1CC=C(C)C[C@@H]21 [DELTA-8-TETRAHYDROCANNABINOL],–,–,377.4,5.3 s,5.97%,16.98%,1.96 °C,–,–,–,–,–,–,–,–,–,–,1480,1.6 s,8.01%,MPE (Mus musculus [19]): 12.82%; T (Mus musculus [20]): 0.12 °C
CCCCCc1cc(O)c2c(c1)OC(C)(C)[C@@H]1CCC(C)=C[C@@H]21 [DRONABINOL],–,–,276.2,47.9 s,42.21%,46.85%,4.25 °C,190.9,194,14.4 s,37.7 s,6.52%,51.96%,29.04%,38.18%,2.05 °C,4.8 °C,–,–,–,–
